Test [1] deals with CA1 pyramidal neurons. The note with it: 7 µM, WT mice, NBQX + L-689,560, -55 mV.
Test [2] has as its system dopamine D2 receptors. The note with it: ref Melancon et al. 2013; cited from earlier work.
Test [3] has as its system Gαq activation in M1 KO hippocampal membranes. The method, then:
(§1) All procedures were performed at 4°C. […] Homogenate was centrifuged at 1000×g for 10 min and supernatant collected, the pellet was rehomogenized and centrifuged again, as above, and supernatant pooled and centrifuged at 11 000×g for 20 min. The resulting pellet was suspended in a final storage buffer (10 mM HEPES, 1 mM EGTA, 1 mM MgCl2, 1 mM DTT; pH 7.4) and centrifuged at 27 000×g for 20 min. Supernatant was removed and the final pellet suspended in 2 mL of final storage buffer. Protein concentration was measured using the Bradford method ([Bradford 1976]) (Coomassie Plus, Bio-Rad protein assay kit) with bovine gamma globulin standards. Samples were then aliquoted and stored at −80°C.
GTPɣ[^35S] binding in mouse WT and M1 KO hippocampal membranes were determined in triplicate using an antibody capture technique in 96-well plate format ([DeLapp et al. 1999]). Membrane aliquots (15 µg/well) from WT or M1 KO C57BL6/NTac mice were incubated with test compound and GTPɣ[^35S] (500 pM/well) for 30 min. […] Plates were left to incubate for 3 h and then centrifuged for 10 min at 2000 rpm. Plates were counted for 1 min/well using a Wallac MicroBeta Trilux scintillation counter (PerkinElmer). […]
(§2) For data analysis, relative EC50 and IC50 values were calculated using a 4-parameter logistic curve (GraphPad Prism v6).

In test [4] the test system is CA1 pyramidal neurons.
For test [5], the system named is CA1 pyramidal neurons (M1R KO). The note with it: 7 µM, M1R KO mice.
The target of test [6] is human M1Rs (Homo sapiens, UniProt P11229). The test can be described thus: cell-based.
Chain of human M1Rs (P11229 whole entry): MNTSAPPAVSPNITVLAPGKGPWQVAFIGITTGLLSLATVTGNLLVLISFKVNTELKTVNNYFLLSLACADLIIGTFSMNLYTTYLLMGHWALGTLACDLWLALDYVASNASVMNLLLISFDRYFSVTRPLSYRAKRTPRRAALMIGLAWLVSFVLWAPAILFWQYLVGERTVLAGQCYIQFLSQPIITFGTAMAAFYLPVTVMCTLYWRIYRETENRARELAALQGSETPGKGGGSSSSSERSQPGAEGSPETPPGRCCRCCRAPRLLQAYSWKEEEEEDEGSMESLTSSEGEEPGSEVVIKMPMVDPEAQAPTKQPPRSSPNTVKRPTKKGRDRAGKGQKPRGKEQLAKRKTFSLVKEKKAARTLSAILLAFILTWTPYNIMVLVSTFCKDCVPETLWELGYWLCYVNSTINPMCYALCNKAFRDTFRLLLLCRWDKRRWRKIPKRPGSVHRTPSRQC
Experimental: CHO cells stably expressing recombinant human M1, M3, and M5 Rs and AV12 cells stably expressing Gα15 and recombinant human M2 or M4 Rs were cultured in DMEM with high glucose and pyridoxine hydrochloride supplemented with 5–10% heat-inactivated fetal bovine serum, 10–20 mM HEPES, 1 mM L-glutamine, 1% penicillin/streptomycin solution and selection agents, 0.5 mg/mL geneticin, or 0.3 µg/mL puromycin. Confluent cultures were passaged weekly and cells harvested 24 h prior to assay using 0.25% trypsin–EDTA and plated at a density of 40 000–50 000 cells per well in tissue culture treated, poly-D-lysine-coated 96-well black-walled, clear bottom plates (Corning or Becton-Dickinson). For FLIPR (FLIPR-tetra, Molecular Devices) assays, media was removed and cells were incubated with 5 µM Fluo-4-AM/0.05% pluronic F-127 (Invitrogen) in a HEPES-buffered salt solution (HEPES-HBSS; composition, in mM; 135 NaCl, 5 KCl, 1.3 CaCl2, 0.5 MgCl2, 0.4 MgSO4, 0.4 KH2PO4, 4.2 NaHCO3, 0.3 Na2HPO4, 5.6 glucose, 20 HEPES, +2.5 mM probenecid for CHO cell lines, pH 7.5 adjusted with 5 M NaOH) for 1 h at room temperature, in the dark, before the media was removed and replaced with HEPES-buffered salt solution in the absence of Fluo-4. […]
Test [7] deals with T1, human M5 receptors (Homo sapiens, UniProt P08912). In words: cell-based. Here is the method:
(§3) CHO cells stably expressing recombinant human M1, M3, and M5 Rs and AV12 cells stably expressing Gα15 and recombinant human M2 or M4 Rs were cultured in DMEM with high glucose and pyridoxine hydrochloride supplemented with 5–10% heat-inactivated fetal bovine serum, 10–20 mM HEPES, 1 mM L-glutamine, 1% penicillin/streptomycin solution and selection agents, 0.5 mg/mL geneticin, or 0.3 µg/mL puromycin. Confluent cultures were passaged weekly and cells harvested 24 h prior to assay using 0.25% trypsin–EDTA and plated at a density of 40 000–50 000 cells per well in tissue culture treated, poly-D-lysine-coated 96-well black-walled, clear bottom plates (Corning or Becton-Dickinson). For FLIPR (FLIPR-tetra, Molecular Devices) assays, media was removed and cells were incubated with 5 µM Fluo-4-AM/0.05% pluronic F-127 (Invitrogen) in a HEPES-buffered salt solution (HEPES-HBSS; composition, in mM; 135 NaCl, 5 KCl, 1.3 CaCl2, 0.5 MgCl2, 0.4 MgSO4, 0.4 KH2PO4, 4.2 NaHCO3, 0.3 Na2HPO4, 5.6 glucose, 20 HEPES, +2.5 mM probenecid for CHO cell lines, pH 7.5 adjusted with 5 M NaOH) for 1 h at room temperature, in the dark, before the media was removed and replaced with HEPES-buffered salt solution in the absence of Fluo-4. Probenecid was included to optimize dye loading in CHO cell lines. Although probenecid has been reported to interact and activate some TRP channels {McClenaghan, 2012 #2996}, there are no reports of interactions with mAChRs or nontransfected CHO cells. Plates were then transferred to FLIPR for experiments, which were also conducted at room temperature.
as §2

The target in test [8] is T2, human M2 receptors (Homo sapiens, UniProt P08172). In words: cell-based. The method, then: as §3, §2
T2 sequence (P08172 whole entry): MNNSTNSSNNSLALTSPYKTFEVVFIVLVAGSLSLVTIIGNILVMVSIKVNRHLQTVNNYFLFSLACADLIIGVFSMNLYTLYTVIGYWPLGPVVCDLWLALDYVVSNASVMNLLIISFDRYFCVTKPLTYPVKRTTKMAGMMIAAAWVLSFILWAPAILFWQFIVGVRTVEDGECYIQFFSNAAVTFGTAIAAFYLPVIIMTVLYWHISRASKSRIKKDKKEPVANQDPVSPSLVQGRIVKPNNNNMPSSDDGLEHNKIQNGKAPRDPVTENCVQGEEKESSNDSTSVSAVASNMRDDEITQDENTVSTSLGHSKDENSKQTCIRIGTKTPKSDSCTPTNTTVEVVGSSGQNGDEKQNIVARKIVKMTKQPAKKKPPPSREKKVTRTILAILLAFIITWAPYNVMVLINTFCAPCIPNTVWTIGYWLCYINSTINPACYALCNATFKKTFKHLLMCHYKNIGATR
For test [9], the target named is T3, human M4 receptors (Homo sapiens, UniProt P08173). In words: cell-based. The method, then:
as §3, §2

The test system of test [10] is CA1 pyramidal neurons (M1R KO). As to conditions: 7 µM, M1R KO mice. The source holds these as a separate data set.
Test [11] concerns the target T1, human M5 receptors. As to conditions: over the concentration range tested. Here is the method:
as §3, §2

Test [12] deals with T2, human M2 receptors. The note with it: over the concentration range tested. Here is the method:
as §3, §2

For test [13], the target named is human M3 receptors (Homo sapiens, UniProt P20309). The note with it: over the concentration range tested. The method, then:
as §3, §2

For test [14], the target named is T3, human M4 receptors. As to conditions: over the concentration range tested. The method, then:
as §3, §2

Test [15] deals with mouse native M1Rs (Mus musculus, UniProt P12657). In words: biochemical. Here is the method:
as §1
GTPɣ[^35S] binding in mouse WT and M1 KO hippocampal membranes were determined in triplicate using an antibody capture technique in 96-well plate format ([DeLapp et al. 1999]). Membrane aliquots (15 µg/well) from WT or M1 KO C57BL6/NTac mice were incubated with test compound and GTPɣ[^35S] (500 pM/well) for 30 min. […] Plates were left to incubate for 3 h and then centrifuged for 10 min at 2000 rpm. Plates were counted for 1 min/well using a Wallac MicroBeta Trilux scintillation counter (PerkinElmer). All incubations took place at room temperature in GTP-binding assay buffer (In mM, 20 HEPES, 100 NaCl, 5 MgCl2; pH 7.4).
as §2

Test [16] concerns 5-HT2B receptors. The note with it: ref Melancon et al. 2013; cited from earlier work.
Test [17] concerns CA1 pyramidal neurons. The note with it: 7 µM, WT mice 6-9 weeks.
The subject of test [18] is CA1 pyramidal cell firing. The note with it: studies not reported here; reversed by scopolamine.
For test [19], the system named is cognition. The note with it: clinical study; ref Nathan et al. 2013; cited from earlier work.

Chain of mouse native M1Rs (P12657 whole entry): as the sequence (P11229 whole entry) above, with A5V, T254S, R320K, A337G, I413V counted along it
T3 sequence (P08173 whole entry): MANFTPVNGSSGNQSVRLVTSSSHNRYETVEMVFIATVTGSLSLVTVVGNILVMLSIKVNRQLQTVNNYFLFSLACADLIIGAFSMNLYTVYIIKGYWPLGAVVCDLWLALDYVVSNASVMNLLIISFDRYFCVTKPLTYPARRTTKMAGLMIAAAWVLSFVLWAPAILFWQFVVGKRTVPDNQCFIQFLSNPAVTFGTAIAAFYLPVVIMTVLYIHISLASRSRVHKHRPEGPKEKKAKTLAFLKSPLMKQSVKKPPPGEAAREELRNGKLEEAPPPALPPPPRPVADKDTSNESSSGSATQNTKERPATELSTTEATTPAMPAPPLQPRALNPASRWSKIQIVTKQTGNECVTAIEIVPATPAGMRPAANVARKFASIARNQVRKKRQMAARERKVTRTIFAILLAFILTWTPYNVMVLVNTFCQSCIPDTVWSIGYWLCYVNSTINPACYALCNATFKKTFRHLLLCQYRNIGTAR
T1 sequence (P08912 whole entry): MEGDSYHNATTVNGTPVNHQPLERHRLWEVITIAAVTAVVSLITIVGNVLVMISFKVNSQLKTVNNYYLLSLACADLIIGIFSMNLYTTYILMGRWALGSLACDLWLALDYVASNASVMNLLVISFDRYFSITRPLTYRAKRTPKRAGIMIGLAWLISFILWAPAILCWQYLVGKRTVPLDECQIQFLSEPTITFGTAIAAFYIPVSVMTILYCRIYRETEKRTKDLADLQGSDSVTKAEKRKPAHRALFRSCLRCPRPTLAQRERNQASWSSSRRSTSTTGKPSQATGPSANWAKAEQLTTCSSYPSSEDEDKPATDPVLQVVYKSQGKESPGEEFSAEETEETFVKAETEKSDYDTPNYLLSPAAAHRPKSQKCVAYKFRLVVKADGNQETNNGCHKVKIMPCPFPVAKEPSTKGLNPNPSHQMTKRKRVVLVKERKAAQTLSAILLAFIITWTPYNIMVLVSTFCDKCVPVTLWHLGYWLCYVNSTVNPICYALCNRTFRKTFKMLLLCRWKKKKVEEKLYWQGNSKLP
Chain of human M3 receptors (P20309 whole entry): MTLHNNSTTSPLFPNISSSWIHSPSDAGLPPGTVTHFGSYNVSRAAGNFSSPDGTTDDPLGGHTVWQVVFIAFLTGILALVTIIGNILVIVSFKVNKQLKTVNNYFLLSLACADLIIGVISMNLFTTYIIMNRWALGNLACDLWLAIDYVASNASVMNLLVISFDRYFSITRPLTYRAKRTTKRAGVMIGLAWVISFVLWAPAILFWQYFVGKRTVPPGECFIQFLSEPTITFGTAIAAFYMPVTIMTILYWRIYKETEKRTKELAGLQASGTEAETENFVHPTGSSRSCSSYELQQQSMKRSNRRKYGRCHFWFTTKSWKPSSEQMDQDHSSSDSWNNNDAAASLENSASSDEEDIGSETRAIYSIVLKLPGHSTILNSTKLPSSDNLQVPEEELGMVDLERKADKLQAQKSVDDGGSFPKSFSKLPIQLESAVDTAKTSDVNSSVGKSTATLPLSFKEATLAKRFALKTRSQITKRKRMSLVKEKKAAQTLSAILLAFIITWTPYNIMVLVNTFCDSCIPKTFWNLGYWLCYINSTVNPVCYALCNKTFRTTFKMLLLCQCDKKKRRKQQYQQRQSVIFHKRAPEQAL

For the molecule `CCCCC1CCN(CCCN2C(=O)CCc3ccccc32)CC1` [77-LH-28-1, 1-[3-(4-butyl-1-piperidinyl)propyl]-3,4-dihydro-2[1H]-quinolinone], the IPSP amplitude in [1] was determined as 39.1 ± 9.2%; in test [10], 64.0 ± 13.3%. Also, the “cross-reactivity at dopamine D2 receptors” value in test [2] is given as “some cross-reactivity”. In addition, the “Gαq activation response in M1R KO mice” value in test [3] is reported as “no response”. Besides, the EPSP amplitude in test [4] came to 194.2 ± 42.0%; in test [5], 118.5 ± 24.7%. Also, the EC50 – broadly, the concentration at which the effect is half-maximal – was 22.2 nM in [6] and 156 nM in [15]. The maximal response (Emax) (usually the size of the effect at its maximum, as opposed to the concentration needed) in [6] (read-out: efficacy (Emax)) was 98 ± 2%; in test [15] (read-out: Emax for Gαq activation), 92 ± 2%. Also, the half-inhibitory concentration (IC50) (usually the concentration needed to halve the response being measured) in test [7] was determined as 2220 nM; in test [8], 1190 nM; in [9], 2030 nM. Moreover, the “agonism of M5 receptors” value in test [11] is “No agonism”. The “agonism of M2 receptors” value in test [12] was “No agonism”. The “agonism of M3 receptors” value in test [13] is recorded as “No agonism”. Besides, the “agonism of M4 receptors” value in [14] is “No agonism”. Moreover, in test [16], the “cross-reactivity at 5-HT2B receptors” value is listed as “some cross-reactivity”. The “depolarization of CA1 pyramidal neurons” value in test [17] is 10.4 ± 3.9 mV. Moreover, the “increase in input resistance” value in test [17] amounted to 86 ± 51 MΩ.

With `Cc1cc(F)c2[nH]c(=O)n(C3CCN(C4CCOCC4)CC3)c2c1` [GSK1034702], the “CA1 pyramidal cell firing in vivo” value in test [18] was “increase in CA1 pyramidal cell firing”. The effects on cognition result in test [19] is listed as “positive effects on cognition”.

With oxotremorine M, the “Gαq activation response in M1R KO mice” value in test [3] is on record as “No response”. The “Emax for Gαq activation” value in [15] (WT hippocampus, percentage of maximal signal with 100 µM oxo-M) came to 99 ± 5%.

Values taken from article PMC4677984, “Activation of Muscarinic M1 Acetylcholine Receptors Induces Long-Term Potentiation in the Hippocampus” (Cerebral Cortex (New York, NY), 2015).
